This is an account of results in US6352977B1, “Substituted β-alanines” (Aventis Pharma Limited, priority 1998, dated 2002).

Turning to `COc1cc(CC(=O)N(C)CC(=O)N(CCCN2CCCC2=O)CCC(=O)O)ccc1NC(=O)Nc1ccccc1C`, the melting point (usually the temperature of the solid-liquid transition) fell in the range of 73 to 76 °C. With `COc1cc(CC(=O)N(C)CC(=O)N(CCC(=O)O)Cc2ccc(OC)c(OC)c2)ccc1NC(=O)Nc1ccccc1C` the figure was 183 to 187 °C.
